This passage reports melting point results from US6353006B1, “Substituted 2-arylimino heterocycles and compositions containing them, for use as progesterone receptor binding agents” (Bayer Corporation, priority 1999, dated 2002).

Molecules are shown by their SMILES.

For `CCc1cc(C=C(C#N)C#N)ccc1N=C1SCC2(CCCC2)N1C1CCCC1` [Entry 271, 2-(2-ethyl-4-(2,2-dicyanovinyl)phenylimino)-1-cyclopentyl-3-thia-1-azaspiro[4.4]nonane], the melting point was 135 to 136 °C.
For `Cc1cc([N+](=O)[O-])ccc1N=C1SC(=O)CN1CC(C)C` [Entry 310, 2-(2-methyl-4-nitrophenylimino)-3-isobutyl-1,3-thiazolidin-5-one] the value was 152 °C.
For `CCc1cc(/C=C/[N+](=O)[O-])ccc1N=C1SCC2(CCCC2)N1C1CCCC1` [Entry 269, 2-(2-ethyl-4-((1E)-2-nitrovinyl)phenylimino)-1-cyclopentyl-3-thia-1-azaspiro[4.4]nonane] the value was 141 to 142 °C; for `CCc1cc(C(=O)O)ccc1N=C1SCC2(CCCC2)N1C1CCCC1` [Entry 253, 2-(4-carboxy-2-ethylphenylimino)-1-cyclopentyl-3-thia-1-azaspiro[4.4]nonane], 208 to 209 °C.
For `CCc1cc(C#N)ccc1N=C1OCC(C)(C)N1C1CCCC1` [Entry 319, 2-(4-cyano-2-ethylphenylimino)-3-cyclopentyl-4,4-dimethyl-1,3-oxazolidine] the value was 112 to 114 °C; for `CCc1cc(C(C)=O)ccc1N=C1SCC2(CCCC2)N1C1CCCC1` [Entry 255, 2-(4-acetyl-2-ethylphenylimino)-1-cyclopentyl-3-thia-1-azaspiro[4.4]nonane], 114 to 115 °C.

The term melting point denotes the temperature, or range, at which the solid turns liquid.
